According to patent publication US5627270A, “Glycosylated steroid derivatives for transport across biological membranes and process for making and using same” (Trustees of Princeton University, priority 1994, dated 1997):
Like-named read-outs stand apart in the source and are kept apart here.

What was measured:
[1] = ASSAY II: proton transport across lipid membranes; format: biochemical
[2] = ASSAY I: leakage of carboxyfluorescein from vesicles; format: biochemical; settings: for efficacy in permeabilizing phospholipid membranes: concentrations required for >50% leakage taken as measure
[3] = test system: DH2 cells (a mutant strain of E. coli K-12); format: cell-based; settings: for EFFECT (enhancement of erythromycin): compound 20 mM; for enhancing effect on erythromycin: test compound 20 mM; for EFFECT (enhancement of erythromycin): key: --: erythromycin alone at 1.0 mM (baseline) and all lesser effects; +: enhancement relative to baseline; +++: significant enhancement relative to baseline
[4] = 0.000579 mM final concentration

Compound	% Decrease in Fluorescence ([1]; 0.00579 mM final concentration)	% Decrease in Fluorescence ([1]; 0.0116 mM final concentration)	% increase in Fluorescence ([2]; 0.117 mM final concentration)	efficacy in permeabilizing phospholipid membranes [2]	also measured
C[C@H](CCC(=O)NC(Cc1c[nH]c2ccccc12)C(=O)O)[C@H]1CC[C@H]2[C@@H]3[C@H](O[C@H]4O[C@H](CO)[C@@H](O)[C@H](O)[C@H]4O)C[C@@H]4C[C@H](O)CC[C@]4(C)[C@H]3C[C@H](O[C@H]3O[C@H](CO)[C@@H](O)[C@H](O)[C@H]3O)[C@]12C (stereo partly drawn) [Entry 5, 3α-hydroxy-cis-5,10-bis-α,α-7,12-glucosyl-25-tryptophanyl cholic acid]	19.4%	26.1%	57.3%	–	–
COC(=O)CC[C@@H](C)[C@H]1CC[C@H]2[C@@H]3[C@H](O)C[C@@H]4C[C@H](O)CC[C@]4(C)[C@H]3C[C@H](O)[C@]12C [Methyl Cholate, reference compound]	–	5.4%	25.4%	–	–
C[C@H](CCC(=O)O)[C@H]1CC[C@H]2[C@@H]3CC[C@@H]4C[C@H](O)CC[C@]4(C)[C@H]3C[C@H](O)[C@]12C [Deoxycholic Acid, reference compound]	–	–	–	also permeabilize membranes in this assay, although at much higher concentrations	EFFECT (enhancement of erythromycin) ([3]; erythromycin 0.5 mM): +; EFFECT (enhancement of erythromycin) ([3]; erythromycin 1.0 mM): +; enhancing effect on erythromycin [3]: showed any effect
C[C@H](CCC(=O)O)[C@H]1CC[C@H]2[C@@H]3[C@H](O[C@@H]4O[C@H](CO)[C@@H](O)[C@H](O)[C@H]4O)C[C@@H]4C[C@H](O)CC[C@]4(C)[C@H]3C[C@H](O[C@@H]3O[C@H](CO)[C@@H](O)[C@H](O)[C@H]3O)[C@]12C [Entry 10, 3α-hydroxy-cis-5,10-bis-β,β-7,12-glucosyl cholic acid]	–	–	0%	–	–
COC(=O)CC[C@@H](C)[C@H]1CC[C@H]2[C@@H]3[C@H](O[C@H]4O[C@H](CO)[C@@H](O)[C@H](O)[C@H]4O)C[C@@H]4C[C@H](OC(=O)c5ccccc5)CC[C@]4(C)[C@H]3C[C@H](O[C@H]3O[C@H](CO)[C@@H](O)[C@H](O)[C@H]3O)[C@]12C [Entry 7, 3α-O-benzoyl-cis-5,10-bis-α,α-7,12-glucosyl cholic acid methyl ester]	15.2%	19.8%	89.1%	the most effective glycosylated steroids tested	–
C[C@H](CCC(=O)O)[C@H]1CC[C@H]2[C@@H]3[C@H](O)C[C@@H]4C[C@H](O)CC[C@]4(C)[C@H]3C[C@H](O)[C@]12C [Cholic Acid, reference compound]	–	–	0%	also permeabilize membranes in this assay, although at much higher concentrations	% Decrease in Fluorescence [1]: 1.0%; enhancing effect on erythromycin [3]: did not have a detectable effect; % increase in Fluorescence ([2]; 2.341 mM final concentration): 59.1%
Gramicidin [reference compound]	87.2%	–	–	–	% Decrease in Fluorescence [1, 4]: 81.6%
C[C@H](CCC(=O)O)[C@H]1CC[C@H]2[C@@H]3[C@H](O)C[C@@H]4C[C@H](O)CC[C@]4(C)[C@H]3CC[C@]12C [Chenodeoxycholic Acid, reference compound]	–	8.2%	17.7%	also permeabilize membranes in this assay, although at much higher concentrations	enhancing effect on erythromycin [3]: did not have a detectable effect; % increase in Fluorescence ([2]; 1.17 mM final concentration): 80.9%
C[C@H](CCC(=O)O)[C@H]1CC[C@H]2[C@@H]3[C@H](O[C@H]4O[C@H](CO)[C@@H](O)[C@H](O)[C@H]4O)C[C@@H]4C[C@H](O)CC[C@]4(C)[C@H]3C[C@H](O[C@H]3O[C@H](CO)[C@@H](O)[C@H](O)[C@H]3O)[C@]12C [Entry 3, 3α-hydroxy-cis-5,10-bis-α,α-7,12-glucosyl cholic acid]	21.0%	35.4%	–	–	% increase in Fluorescence ([2]; 2.34 mM final concentration): 0%
CCOC(=O)O[C@@H]1CC[C@@]2(C)[C@@H](C1)C[C@@H](O[C@H]1O[C@H](CO)[C@@H](O)[C@H](O)[C@H]1O)[C@@H]1[C@@H]2C[C@H](O[C@H]2O[C@H](CO)[C@@H](O)[C@H](O)[C@H]2O)[C@]2(C)[C@@H]([C@H](C)CCC(=O)OC)CC[C@@H]12 [Entry 1, 3α-ethylcarbonate-cis-5,10-bis-α,α-7,12-glucosyl cholic acid methyl ester]	4.3%	7.6%	0%	–	–
C[C@H](CCC(=O)O)[C@H]1CC[C@H]2[C@@H]3[C@H](O[C@@H]4O[C@H](CO)[C@@H](O)[C@H](O)[C@H]4O)C[C@H]4C[C@H](O)CC[C@]4(C)[C@H]3C[C@H](O[C@@H]3O[C@H](CO)[C@@H](O)[C@H](O)[C@H]3O)[C@]12C [Entry 13, 3α-hydroxy-trans-5,10-bis-β,β-7,12-glucosyl cholic acid]	35.2%	70.6%	0%	–	% Decrease in Fluorescence [1, 4]: 2.8%
C[C@H](CCC(=O)O)[C@H]1CC[C@H]2[C@@H]3[C@H](O[C@H]4O[C@H](CO)[C@@H](O)[C@H](O)[C@H]4O)C[C@@H]4C[C@H](O)CC[C@]4(C)[C@H]3C[C@H](O[C@H]3O[C@H](CO)[C@@H](O)[C@H](O)[C@H]3O)[C@]12C [3α-OH-cis-5,10-bis-α,α-glucosyl cholic acid K^+]	–	–	–	–	EFFECT (enhancement of erythromycin) ([3]; erythromycin 0.5 mM): +; EFFECT (enhancement of erythromycin) ([3]; erythromycin 1.0 mM): +
COC(=O)CC[C@@H](C)[C@H]1CC[C@H]2[C@@H]3[C@H](O[C@H]4O[C@H](CO)[C@@H](O)[C@H](O)[C@H]4O)C[C@@H]4C[C@H](O)CC[C@]4(C)[C@H]3C[C@H](O[C@H]3O[C@H](CO)[C@@H](O)[C@H](O)[C@H]3O)[C@]12C [Entry 4, 3α-hydroxy-cis-5,10-bis-α,α-7,12-glucosyl cholic acid methyl ester]	7.89%	12.3%	0%	–	–
COC(=O)CC[C@@H](C)[C@H]1CC[C@H]2[C@@H]3[C@H](O[C@@H]4O[C@H](CO)[C@@H](O)[C@H](O)[C@H]4O)C[C@H]4C[C@H](OC(=O)c5ccccc5)CC[C@]4(C)[C@H]3C[C@H](O[C@@H]3O[C@H](CO)[C@@H](O)[C@H](O)[C@H]3O)[C@]12C [Entry 9, 3α-O-benzoyl-trans-5,10-bis-β,β-7,12-glucosyl cholic acid methyl ester]	27.4%	43.0%	24.5%	–	–
COC(=O)CC[C@@H](C)[C@H]1CC[C@H]2[C@@H]3[C@H](O[C@H]4O[C@H](CO)[C@@H](O)[C@H](O)[C@H]4O)C[C@H]4C[C@H](OC(=O)c5ccccc5)CC[C@]4(C)[C@H]3C[C@H](O[C@H]3O[C@H](CO)[C@@H](O)[C@H](O)[C@H]3O)[C@]12C [Entry 11, 3α-O-benzoyl-trans-5,10-bis-α,α-7,12-glucosyl cholic acid methyl ester]	–	22.0%	98%	the most effective glycosylated steroids tested	% Decrease in Fluorescence ([1]; 0.00585 mM final concentration): 14.7%; EFFECT (enhancement of erythromycin) ([3]; erythromycin 0.5 mM): +; EFFECT (enhancement of erythromycin) ([3]; erythromycin 1.0 mM): +
